7 compounds from PubChem BioAssay AID1259407 (Chemical Carcinogenesis Research Information System (CCRIS), 2018) can be followed below.

The test system of this series is CCRIS mutagenicity, Ames/micronucleus/aberration tests. The series can be described thus: CCRIS mutagenicity studies.
[1] abbreviates: Test System: AMES SALMONELLA TYPHIMURIUM, Strain/Indicator: TA100, Metabolic Activation: NONE, Method: STANDARD PLATE.
Setting [2] is: Test System: AMES SALMONELLA TYPHIMURIUM, Strain/Indicator: TA98, Metabolic Activation: NONE, Method: PREINCUBATION
Where [3] appears, read: Test System: AMES SALMONELLA TYPHIMURIUM, Strain/Indicator: TA100, Metabolic Activation: NONE, Method: PREINCUBATION

Active and inactive are the calls of the source. How the calls were made is not given here.

As to `Cc1ccccc1OP(=O)(Oc1ccccc1C)Oc1ccccc1C`, the mutagenic call runs as follows: under setting [1], “inactive; negative”; (Test System: AMES SALMONELLA TYPHIMURIUM, Strain/Indicator: TA100, Metabolic Activation: RAT, LIVER, MICROSOMES, Method: STANDARD PLATE) “active; positive”.

Take `COc1nncc2ccncc12`: the mutagenic call reads like this: under setting [2], “inactive; negative”; (Test System: AMES SALMONELLA TYPHIMURIUM, Strain/Indicator: TA98, Metabolic Activation: RAT, LIVER, S-9, PCB, Method: PREINCUBATION) “inactive; negative”; under setting [3], “inactive; negative”; (Test System: AMES SALMONELLA TYPHIMURIUM, Strain/Indicator: TA100, Metabolic Activation: RAT, LIVER, S-9, PCB, Method: PREINCUBATION) “inactive; negative”.

In the case of `[Cu+2].[O-]c1cccc2cccnc12.[O-]c1cccc2cccnc12`, the mutagenic call runs as follows: (Test System: AMES SALMONELLA TYPHIMURIUM, Strain/Indicator: TA98, Metabolic Activation: NONE, Method: STANDARD PLATE) “inactive; negative”; (Test System: AMES SALMONELLA TYPHIMURIUM, Strain/Indicator: TA98, Metabolic Activation: RAT LIVER S-9, AROCLOR 1254, Method: STANDARD PLATE) “inactive; negative”; under setting [1], “inactive; negative”; (Test System: AMES SALMONELLA TYPHIMURIUM, Strain/Indicator: TA100, Metabolic Activation: RAT LIVER S-9, AROCLOR 1254, Method: STANDARD PLATE) “active; positive”.

With `CN(C)c1ccc(CCO)cc1`, the mutagenic call (Test System: AMES SALMONELLA TYPHIMURIUM, Strain/Indicator: TA98, Metabolic Activation: HAMSTER, LIVER, S-9, AROCLOR 1254 (5, 10, 20%), Method: STANDARD PLATE) was “active; positive”; the mutagenic call (Test System: AMES SALMONELLA TYPHIMURIUM, Strain/Indicator: TA98, Metabolic Activation: RAT, LIVER, S-9, AROCLOR 1254 (20%), Method: STANDARD PLATE) was “active; positive”; the mutagenic call (Test System: AMES SALMONELLA TYPHIMURIUM, Strain/Indicator: TA98, Metabolic Activation: RAT, LIVER, S-9, AROCLOR 1254, HAMSTER, LIVER, S-9, AROCLOR 1254, Method: STANDARD PLATE) is “active; positive”; the mutagenic call (Test System: AMES SALMONELLA TYPHIMURIUM, Strain/Indicator: TA1538, Metabolic Activation: HAMSTER, LIVER, S-9, AROCLOR 1254 (2.5-20%), Method: STANDARD PLATE) is “active; positive”; the mutagenic call (Test System: AMES SALMONELLA TYPHIMURIUM, Strain/Indicator: TA1538, Metabolic Activation: RAT, LIVER, S-9, AROCLOR 1254 (5, 10, 20%), Method: STANDARD PLATE) was “active; positive”; the mutagenic call (Test System: AMES SALMONELLA TYPHIMURIUM, Strain/Indicator: TA1538, Metabolic Activation: RAT, LIVER, S-9, AROCLOR 1254, HAMSTER, LIVER, S-9, AROCLOR 1254, Method: STANDARD PLATE) was “active; positive”. For the same compound, the mutagenic call is, setting by setting: (Test System: MOUSE LYMPHOMA, Strain/Indicator: L5178Y (TK+/TK-), Metabolic Activation: RAT, LIVER, S-9, AROCLOR 1254, Method: SUSPENSION/PLATE) “active; positive. reevaluation of results: inconclusive”; (Test System: Mouse lymphoma, Strain/Indicator: L5178Y (tk+/tk-), Metabolic Activation: None, Method: Suspension/plate) “inactive; negative”.

Regarding `Cc1cc2cc3ccccc3c3ccc4cccc1c4c23`, the mutagenic call is “active; positive” (Test System: AMES SALMONELLA TYPHIMURIUM, Strain/Indicator: TA100, Metabolic Activation: RAT, INTACT HEPATOCYTES, AROCLOR 1254, Method: PREINCUBATION) and “active; positive” (Test System: AMES SALMONELLA TYPHIMURIUM, Strain/Indicator: TA100, Metabolic Activation: RAT, NADPH-FORTIFIED HOMOGENIZED HEPATOCYTES, AROCLOR 1254, Method: PREINCUBATION).

Turning to `O=Cc1ccc(O)cc1`, the mutagenic call under setting [2] was “inactive; negative”; the mutagenic call (Test System: AMES SALMONELLA TYPHIMURIUM, Strain/Indicator: TA98, Metabolic Activation: RAT LIVER S-9, PHENOBARBITAL AND BETA-NAPHTHOFLAVONE, Method: PREINCUBATION) is “inactive; negative”; the mutagenic call under setting [3] was “inactive; negative”; the mutagenic call (Test System: AMES SALMONELLA TYPHIMURIUM, Strain/Indicator: TA100, Metabolic Activation: RAT LIVER S-9, PHENOBARBITAL AND BETA-NAPHTHOFLAVONE, Method: PREINCUBATION) was “inactive; negative”; the mutagenic call (Test System: AMES SALMONELLA TYPHIMURIUM, Strain/Indicator: TA1535, Metabolic Activation: NONE, Method: PREINCUBATION) was “inactive; negative”; the mutagenic call (Test System: AMES SALMONELLA TYPHIMURIUM, Strain/Indicator: TA1535, Metabolic Activation: RAT LIVER S-9, PHENOBARBITAL AND BETA-NAPHTHOFLAVONE, Method: PREINCUBATION) was “inactive; negative”. Moreover, the mutagenic call is “inactive; negative” (Test System: AMES SALMONELLA TYPHIMURIUM, Strain/Indicator: TA1537, Metabolic Activation: NONE, Method: PREINCUBATION); “inactive; negative” (Test System: AMES SALMONELLA TYPHIMURIUM, Strain/Indicator: TA1537, Metabolic Activation: RAT LIVER S-9, PHENOBARBITAL AND BETA-NAPHTHOFLAVONE, Method: PREINCUBATION); “inactive; negative” (Test System: AMES SALMONELLA TYPHIMURIUM, Strain/Indicator: TA1538, Metabolic Activation: NONE, Method: PREINCUBATION); “inactive; negative” (Test System: AMES SALMONELLA TYPHIMURIUM, Strain/Indicator: TA1538, Metabolic Activation: RAT LIVER S-9, PHENOBARBITAL AND BETA-NAPHTHOFLAVONE, Method: PREINCUBATION); “inactive; negative” (Test System: E.COLI, Strain/Indicator: WP2UVRA, Metabolic Activation: NONE, Method: PREINCUBATION); “inactive; negative” (Test System: E.COLI, Strain/Indicator: WP2UVRA, Metabolic Activation: RAT LIVER S-9, PHENOBARBITAL AND BETA-NAPHTHOFLAVONE, Method: PREINCUBATION).

For the compound `CCCCOC(=O)[C@@H](C)Oc1ccc(Oc2ccc(C#N)cc2F)cc1`, the mutagenic call (End Point: In vitro chromosomal aberrations, Test System: Chinese hamster lung (CHL) cells, Metabolic Activation: None) was “active; positive (ploidy)”; the mutagenic call (End Point: In vitro chromosomal aberrations, Test System: Chinese hamster lung (CHL) cells, Metabolic Activation: Rat, liver, S-9, Aroclor 1254) was “inactive; negative”; the mutagenic call (End Point: In vivo micronucleus, Test System: Bone marrow polychromatic erythgrocytes, Species: Mouse, Strain/Sex: ICR (Crj:CD-1)/ Female, Route: Oral (Gavage)) was “inactive; negative”; the mutagenic call (End Point: In vivo micronucleus, Test System: Bone marrow polychromatic erythgrocytes, Species: Mouse, Strain/Sex: ICR (Crj:CD-1)/ Male, Route: Oral (Gavage)) is “inactive; negative”; the mutagenic call (End Point: In vivo micronucleus, Test System: Bone marrow polychromatic erythrocytes, Species: Mouse, Strain/Sex: ICR (Crj:CD-1)/ Female, Route: Oral (Gavage)) was “inactive; negative”; the mutagenic call (End Point: In vivo micronucleus, Test System: Bone marrow polychromatic erythrocytes, Species: Mouse, Strain/Sex: ICR (Crj:CD-1)/ Male, Route: Oral (Gavage)) was “inactive; negative”. Also, the mutagenic call is, setting by setting: (Test System: Ames Salmonella typhimurium, Strain/Indicator: TA98, Metabolic Activation: None, Method: Plate incorporation) “inactive; negative”; (Test System: Ames Salmonella typhimurium, Strain/Indicator: TA98, Metabolic Activation: Rat, liver, S-9, Aroclor-1254, Method: Plate incorporation) “inactive; negative”; (Test System: Ames Salmonella typhimurium, Strain/Indicator: TA100, Metabolic Activation: None, Method: Plate incorporation) “inactive; negative”; (Test System: Ames Salmonella typhimurium, Strain/Indicator: TA100, Metabolic Activation: Rat, liver, S-9, Aroclor-1254, Method: Plate incorporation) “inactive; negative”; (Test System: Ames Salmonella typhimurium, Strain/Indicator: TA1535, Metabolic Activation: None, Method: Plate incorporation) “inactive; negative”; (Test System: Ames Salmonella typhimurium, Strain/Indicator: TA1535, Metabolic Activation: Rat, liver, S-9, Aroclor-1254, Method: Plate incorporation) “inactive; negative”. Also, the mutagenic call (Test System: Ames Salmonella typhimurium, Strain/Indicator: TA1537, Metabolic Activation: None, Method: Plate incorporation) was “inactive; negative”; the mutagenic call (Test System: Ames Salmonella typhimurium, Strain/Indicator: TA1537, Metabolic Activation: Rat, liver, S-9, Aroclor-1254, Method: Plate incorporation) was “inactive; negative”; the mutagenic call (Test System: E. coli, Strain/Indicator: WP2 uvrA, Metabolic Activation: None, Method: Standard plate) is “inactive; negative”; the mutagenic call (Test System: E. coli, Strain/Indicator: WP2 uvrA, Metabolic Activation: Rat, liver, S-9, Aroclor-1254, Method: Standard plate) was “inactive; negative”; the mutagenic call (Test System: Mouse lymphoma, Strain/Indicator: L5178Y cells (TK+/TK-), Metabolic Activation: None, Method: Suspension/plate) was “inactive; negative”; the mutagenic call (Test System: Mouse lymphoma, Strain/Indicator: L5178Y cells (TK+/TK-), Metabolic Activation: Rat, liver, S-9, Aroclor-1254, Method: Suspension/plate) is “inactive; negative”.
